Results as given in patent US4454145A, “Nicotinates of alkanediols having hypolipidaemic activity and pharmaceutical compositions containing them” (Alfa Farmaceutici S.p.A., priority 1981, dated 1984).
Like-named read-outs stand apart in the source and are kept apart here.

Columns and labels:
Type in all cases: in vivo, Male Wistar rats
[1] = test system: hypertriglyceridemia caused by fructose; test: Test A: decrease of triglycerides content in the serum of rats due to hypertriglyceridemia caused by fructose; conditions: for change in vivo at 50 mg/kg: Rattus norvegicus, po, 72 h, read-out: ΔTGhematic (percent decrease of the hematic triglycerides); for change in vivo at 50 mg/kg / ΔTGhematic (percent decrease of the hematic triglycerides): 50 mg/Kg/os/die, three days, fructose diet; for ED50, Test diet of fructose: Table 3, oral
Excerpt: (A) Determination of the decrease of triglycerides content in the serum of rats due to hypertriglyceridemia caused by fructose.
Male Wistar rats weighing 260±20 g, normally fed, subdivided in groups of 6 animals each, are used. The test lasts three days: in the first day the animals are normally fed but are kept without drinking water; in the second and third day they receive a 20% (w/v) water solution of fructose instead of water; moreover in the second day they are fed by means of a gastric probe with further 4 ml of 50% (w/v) aqueous solution of fructose. […] The animals are sacrificed undr ethereal anaesthesia 4 hours after the treatment of the third day and the blood is drawn by an intracardiacal injection.
The percent decrease of the hematic triglycerides due to the treatment with the compound to be tested is expressed as ΔTGhematic and is represented by the following formula: [formula] TG=triglycerides.

[2] = test system: hypertriglyceridemia caused by ethanol; test: Test C: decrease of triglycerides content in the serum of rats based on hypertriglyceridemia caused by ethanol; conditions: Table 3, oral, ethanol in drinking water
Excerpt: (C) Determination of the decrease of triglycerides content in the serum of rats based on hypertriglyceridemia caused by ethanol. Male Wistar rats weighing 260±20 g, normally fed, are subdivided in experimental groups of 10 animals each: (1) control group, normally fed; (2) diet group, given drinking water containing 10% (v/v) of ethanol since the second day; (3) treated group, given drinking water containing 10% (v/v) of ethanol and treated with the compounds to be tested from the second day. At the beginning of the fourth day, after 18 hours of fast, the animals are sacrificed under ethereal anaesthesia by means of an intracardiacal injection. The dosage of the triglycerides is carried out on the serum using the enzymatic method described by […]. and […]. […] The percent decrease of the triglycerides has been calculated as above.

[3] = test system: total cholesterol in rats fed with hypercholesterolemic diet; test: Test B: variation of total cholesterol in rats fed with Tensho et al. hypercholesterolemic diet; conditions: Table 3, oral
Excerpt: (B) Determination of the variation of total cholesterol in rats fed with Greenberg […] diet modified according to Tensho et al.
The rats are subdivided in 3 experimental groups:
(1) control group, normally fed;
(2) diet group, fed only with the Tensho diet;
(3) treated group, fed with the Tensho diet and treated with the compounds to be tested.
At the beginning of the eighth day the rats, fasted since the previous evenging, are sacrified under ethereal anaesthesia by means of an intracardiacal injection. […] The percent decrease of the hematic cholesterol is calculated by means of the following formula: [formula] Ch=cholesterol

Work on CC(C)(CCCCC(C)(C)COC(=O)c1cccnc1)COC(=O)c1cccnc1 [Example 1, 2,2,7,7-Tetramethyl-1,8-octanediol dinicotinate] yielded a change in vivo at 50 mg/kg ([1]; Table 1, esters) of -60%.
Compound CC(C)(CCCCCC(C)(C)COC(=O)c1cccnc1)COC(=O)c1cccnc1 [Example 2, 2,2,8,8-Tetramethyl-1,9-nonanediol dinicotinate] has a change in vivo at 50 mg/kg ([1]; Table 1, esters) of -80%.
With CC(C)(CCCCCCC(C)(C)COC(=O)c1cccnc1)COC(=O)c1cccnc1 [Example 3, 2,2,9,9-Tetramethyl-1,10-decanediol dinicotinate] the “ED50, Test diet of ethanol” value [2] was 0.0727 mmole/Kg/os/die, the “ED50, Test diet of Tensho” value [3] was 0.0900 mmole/Kg/os/die and the change in vivo at 50 mg/kg ([1]; Table 1, esters) was -99%. The “ED50, Test diet of fructose” value [1] was 0.0034 mmole/Kg/os/die.
For CC(C)(CCCCCCCC(C)(C)COC(=O)c1cccnc1)COC(=O)c1cccnc1 [Example 4, 2,2,10,10-Tetramethyl-1,11-undecanediol dinicotinate], the “ED50, Test diet of ethanol” value [2] was 0.0718 mmole/Kg/os/die, the “ED50, Test diet of Tensho” value [3] was 0.0891 mmole/Kg/os/die and the change in vivo at 50 mg/kg ([1]; Table 1, esters) was -92.5%. The “ED50, Test diet of fructose” value [1] was 0.0029 mmole/Kg/os/die.
With CC(C)(CCCCCCCCC(C)(C)COC(=O)c1cccnc1)COC(=O)c1cccnc1 [Example 5, 2,2,11,11-Tetramethyl-1,12-dodecanediol dinicotinate] the “ED50, Test diet of ethanol” value [2] was 0.0707 mmole/Kg/os/die, the “ED50, Test diet of Tensho” value [3] was 0.0880 mmole/Kg/os/die and the change in vivo at 50 mg/kg ([1]; Table 1, esters) was -98%. The “ED50, Test diet of fructose” value [1] was 0.0026 mmole/Kg/os/die.
CCC(C)(CCCCCCC(C)(CC)C(=O)O)C(=O)O (stereo not drawn) [Example 7, 2,9-Diethyl-2,9-dimethyl-1,10-decanedioic acid] showed a change in vivo at 50 mg/kg ([1]; Table 2, acids and alcohols) of -82.1%.
In the case of CCC(C)(CO)CCCCCCC(C)(CC)CO (stereo not drawn) [Example 8, 2,9-Diethyl-2,9-dimethyl-1,10-decanediol], the change in vivo at 50 mg/kg ([1]; Table 2, acids and alcohols) is reported as -81.5%.
For CC(C)(CCCCCCCC(C)(C)C(=O)O)C(=O)O [Example 13], the change in vivo at 50 mg/kg ([1]; Table 2, acids and alcohols) was -91.8%.
CC(C)(CO)CCCCCCCC(C)(C)CO [Example 14] gave a change in vivo at 50 mg/kg ([1]; Table 2, acids and alcohols) of -92%.
With CCC(C)(CCCCCCCC(C)(CC)C(=O)O)C(=O)O (stereo not drawn) [Example 15] the change in vivo at 50 mg/kg ([1]; Table 2, acids and alcohols) was -97%.
With CCC(C)(CO)CCCCCCCC(C)(CC)CO (stereo not drawn) [Example 16] the change in vivo at 50 mg/kg ([1]; Table 2, acids and alcohols) was -90%.
Work on CC(C)(CCCCCCCCC(C)(C)C(=O)O)C(=O)O [Example 17] yielded a change in vivo at 50 mg/kg ([1]; Table 2, acids and alcohols) of -97.5%.
CC(C)(CO)CCCCCCCCC(C)(C)CO [Example 18] showed a change in vivo at 50 mg/kg ([1]; Table 2, acids and alcohols) of -93.4%.
CCC(C)(CCCCCCCCC(C)(CC)C(=O)O)C(=O)O (stereo not drawn) [Example 19] showed a change in vivo at 50 mg/kg ([1]; Table 2, acids and alcohols) of -57.4%.
CCC(C)(CO)CCCCCCCCC(C)(CC)CO (stereo not drawn) [Example 20] gave a change in vivo at 50 mg/kg ([1]; Table 2, acids and alcohols) of -50.1%.
With CCCC(C)(CCCCCCCCC(C)(CCC)C(=O)O)C(=O)O (stereo not drawn) [Example 21] the change in vivo at 50 mg/kg ([1]; Table 2, acids and alcohols) was -64.3%.
CCCC(C)(CO)CCCCCCCCC(C)(CO)CCC (stereo not drawn) [Example 22] gave a change in vivo at 50 mg/kg ([1]; Table 2, acids and alcohols) of -45.2%.
Compound CCCCC(C)(CCCCCCCCC(C)(CCCC)C(=O)O)C(=O)O (stereo not drawn) [Example 23] has a change in vivo at 50 mg/kg ([1]; Table 2, acids and alcohols) of -62.4%.
Work on CCCCC(C)(CO)CCCCCCCCC(C)(CO)CCCC (stereo not drawn) [Example 24] yielded a change in vivo at 50 mg/kg ([1]; Table 2, acids and alcohols) of -60.2%.
With O=C(O)c1cccnc1 [Nicotinic acid, reference compound] the “ED50, Test diet of ethanol” value [2] was 0.4800 mmole/Kg/os/die, the “ED50, Test diet of Tensho” value [3] was 0.3020 mmole/Kg/os/die and the “ED50, Test diet of fructose” value [1] was 0.4760 mmole/Kg/os/die.
Compound CCC(C)(CCCCCCC(C)(CC)COC(=O)c1cccnc1)COC(=O)c1cccnc1 (stereo not drawn) [Table 1 No. 4, 2,9-diethyl-2,9-dimethyl-1,10-decanediol dinicotinate] has a change in vivo at 50 mg/kg ([1]; Table 1, esters) of -87%.
Compound CCCC(C)(CCCCCCC(C)(CCC)COC(=O)c1cccnc1)COC(=O)c1cccnc1 (stereo not drawn) [Table 1 No. 5, 2,9-dimethyl-2,9-di-n-propyl-1,10-decanediol dinicotinate] has a change in vivo at 50 mg/kg ([1]; Table 1, esters) of -90%.
For CCCCC(C)(CCCCCCC(C)(CCCC)COC(=O)c1cccnc1)COC(=O)c1cccnc1 (stereo not drawn) [Table 1 No. 6, 2,9-di-n-butyl-2,9-dimethyl-1,10-decanediol dinicotinate], the change in vivo at 50 mg/kg ([1]; Table 1, esters) was -85.6%.
For CCC(C)(CCCCCCCC(C)(CC)COC(=O)c1cccnc1)COC(=O)c1cccnc1 (stereo not drawn) [Table 1 No. 8, 2,10-diethyl-2,10-dimethyl-1,11-undecanediol dinicotinate], the change in vivo at 50 mg/kg ([1]; Table 1, esters) was -98%.
In the case of CCC(C)(CCCCCCCCC(C)(CC)COC(=O)c1cccnc1)COC(=O)c1cccnc1 (stereo not drawn) [Table 1 No. 10, 2,11-diethyl-2,11-dimethyl-1,12-dodecanediol dinicotinate], the change in vivo at 50 mg/kg ([1]; Table 1, esters) is reported as -66%.
Work on CCCC(C)(CCCCCCCCC(C)(CCC)COC(=O)c1cccnc1)COC(=O)c1cccnc1 (stereo not drawn) [Table 1 No. 11, 2,11-dimethyl-2,11-di-n-propyl-1,12-dodecanediol dinicotinate] yielded a change in vivo at 50 mg/kg ([1]; Table 1, esters) of -65.8%.
Work on CCCCC(C)(CCCCCCCCC(C)(CCCC)COC(=O)c1cccnc1)COC(=O)c1cccnc1 (stereo not drawn) [Table 1 No. 12, 2,11-di-n-butyl-2,11-dimethyl-1,12-dodecanediol dinicotinate] yielded a change in vivo at 50 mg/kg ([1]; Table 1, esters) of -59.1%.
CC(C)(CCCCC(C)(C)C(=O)O)C(=O)O [Table 2 No. 1] was tested, and the “ΔTGhematic (percent decrease of the hematic triglycerides)” value ([1]; Table 2, acids and alcohols) was “inactive”.
With CC(C)(CO)CCCCC(C)(C)CO [Table 2 No. 2, 2,2,7,7-tetramethyl-1,8-octanediol] the “ΔTGhematic (percent decrease of the hematic triglycerides)” value ([1]; Table 2, acids and alcohols) was “inactive”.
CC(C)(CCCCCC(C)(C)C(=O)O)C(=O)O [Table 2 No. 3] was tested, and the “ΔTGhematic (percent decrease of the hematic triglycerides)” value ([1]; Table 2, acids and alcohols) was “inactive”.
CC(C)(CO)CCCCCC(C)(C)CO [Table 2 No. 4, 2,2,8,8-tetramethyl-1,9-nonanediol] was tested, and the “ΔTGhematic (percent decrease of the hematic triglycerides)” value ([1]; Table 2, acids and alcohols) was “inactive”.
Work on CC(C)(CCCCCCC(C)(C)C(=O)O)C(=O)O [Table 2 No. 5] yielded a change in vivo at 50 mg/kg ([1]; Table 2, acids and alcohols) of -91.8%.
For CC(C)(CO)CCCCCCC(C)(C)CO [Table 2 No. 6, 2,2,9,9-tetramethyl-1,10-decanediol], the change in vivo at 50 mg/kg ([1]; Table 2, acids and alcohols) was -94%.
CCCC(C)(CCCCCCC(C)(CCC)C(=O)O)C(=O)O (stereo not drawn) [Table 2 No. 9] showed a change in vivo at 50 mg/kg ([1]; Table 2, acids and alcohols) of -89.5%.
In the case of CCCC(C)(CO)CCCCCCC(C)(CO)CCC (stereo not drawn) [Table 2 No. 10, 2,9-dimethyl-2,9-di-n-propyl-1,10-decanediol], the change in vivo at 50 mg/kg ([1]; Table 2, acids and alcohols) is reported as -88.3%.
CCCCC(C)(CCCCCCC(C)(CCCC)C(=O)O)C(=O)O (stereo not drawn) [Table 2 No. 11] was tested, and the change in vivo at 50 mg/kg ([1]; Table 2, acids and alcohols) was -65.4%.
In the case of CCCCC(C)(CO)CCCCCCC(C)(CO)CCCC (stereo not drawn) [Table 2 No. 12, 2,9-di-n-butyl-2,9-dimethyl-1,10-decanediol], the change in vivo at 50 mg/kg ([1]; Table 2, acids and alcohols) is reported as -58.7%.
